Results on twelve compounds are retold here after US12297194B2, “N2-phenylpyrimidine-2,4-diamine compounds, and preparation methods and methods of use thereof” (BRIDGE BIOTHERAPEUTICS, INC., priority 2021, dated 2025).

What all share (assay type): cell-based, murine
In assay [1] the target is Ba/F3 EGFR L858R/C797S mutants (Homo sapiens, UniProt P00533, C797S/L858R, cells depend on it). As to the kind of experiment: CellTiter-Glo cell viability, Ba/F3 EGFR L858R/C797S cells. The settings on record: 72 hours, read-out: Ba/F3 EGFR mutant cell (IC50, nM) L/C. In outline:
(§1)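 Luminescent ATP read-out (CellTiter-Glo) after 72 h compound exposure, 0–2000 nM dilution series. Cells plated 2500/well, dosed 24 h post-seeding. IC50 from luminescence curves.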

Assay [2] has as its target Ba/F3 EGFR Del19/T790M/C797S mutants (Homo sapiens, UniProt P00533, T790M/C797S, cells depend on it, form not given). As to the kind of experiment: CellTiter-Glo cell viability, Ba/F3 EGFR Del19/T790M/C797S cells. The settings on record: 72 hours, read-out: Ba/F3 EGFR mutant cell (IC50, nM) D/T/C. In outline: as §1
A general note: ATP-based viability assays read luminescence as a measure of living cells.

Assay [3] deals with Ba/F3 EGFR Del19/C797S mutants (Homo sapiens, UniProt P00533, C797S, cells depend on it, form not given). As to the kind of experiment: CellTiter-Glo cell viability, Ba/F3 EGFR Del19/C797S cells. The settings on record: 72 hours, read-out: Ba/F3 EGFR mutant cell (IC50, nM) D/C. In outline:
as §1

Assay [4] has as its target Ba/F3 EGFR L858R/T790M/C797S mutants (Homo sapiens, UniProt P00533, T790M/C797S/L858R, cells depend on it). As to the kind of experiment: CellTiter-Glo cell viability, Ba/F3 EGFR L858R/T790M/C797S cells. Conditions: 72 hours, read-out: Ba/F3 EGFR mutant cell (IC50, nM) L/T/C. In outline:
as §1

A further assay deals with Ba/F3 EGFR Wild-type (Homo sapiens, UniProt P00533). As to the kind of experiment: CellTiter-Glo cell viability, Ba/F3 EGFR wild-type cells. Conditions: 72 hours, read-out: Ba/F3 EGFR mutant cell (IC50, nM) WT. In outline: as §1
In assay [5] the target is Ba/F3 EGFR Del19/T790M mutants (Homo sapiens, UniProt P00533, T790M, cells depend on it, form not given). As to the kind of experiment: CellTiter-Glo cell viability, Ba/F3 EGFR Del19/T790M cells. Conditions: 72 hours, read-out: Ba/F3 EGFR mutant cell (IC50, nM) D/T. Here is the method:
In order to evaluate an inhibitory ability on wild-type Ba/F3 EGFR and Ba/F3 EGFR mutations in Ba/F3 cell lines by the compounds of Formula 1, the experiment was carried out as described below.
The measurement of activities on Ba/F3 cells harboring wild-type EGFR and EGFR mutants by the compounds of the present invention were determined utilizing the CELLTITER-GLO™ system from Promega, as follows. The CELLTITER-GLO™ assay is a method for measuring the ATP present in cells to determine the cell viability. Ba/F3 EGFR wild-type and Ba/F3 EGFR L858R/C797S (L/C), Ba/F3 EGFR L858R/T790M/C797S (L/T/C), Ba/F3 EGFR Del19/T790M (D/T), Ba/F3 EGFR Del19/C797S (D/C), Ba/F3 EGFR Del19/T790M/C797S (D/T/C) mutant cell lines were maintained in RPMI1640, containing […], 1% penicillin-streptomycin, […] puromycin. Cells were grown in a humidified incubator at 37° C. with […].
The analysis of an EGFR inhibitory activity by the compounds was carried out in accordance with the analysis reaction recipe below.
2500 cells/90 μL were seeded in 96 well cell culture plate, and after 24 hours, treated with the compounds represented by Formula 1 in concentrations of 0, 0.3, 0.9, 2.7, 8.2, 24.7, 74.1, 222.2, 666.7, 2000 (nM). After the reaction of 72 hours, the plate was incubated for 30 minutes at ambient temperature, and then, was further treated with 100 μL of the CELLTITER-GLO™ reagent and was shaken for 10 minutes at ambient temperature. Finally, measurement of the luminescence values were obtained using the SPECTRAMAX™ iD3 (Molecular Devices), and the IC50 values of the compound were analyzed using the GraphPad Prism program (version 9.0.2, GraphPad Software, Inc.).

Structures are written as SMILES. A value given as a limit tells only on which side of the number the result lay.

Sequence of Ba/F3 EGFR Del19/C797S mutants (P00533 with tags, fused parts or gaps DEL746-750/C797S, form open): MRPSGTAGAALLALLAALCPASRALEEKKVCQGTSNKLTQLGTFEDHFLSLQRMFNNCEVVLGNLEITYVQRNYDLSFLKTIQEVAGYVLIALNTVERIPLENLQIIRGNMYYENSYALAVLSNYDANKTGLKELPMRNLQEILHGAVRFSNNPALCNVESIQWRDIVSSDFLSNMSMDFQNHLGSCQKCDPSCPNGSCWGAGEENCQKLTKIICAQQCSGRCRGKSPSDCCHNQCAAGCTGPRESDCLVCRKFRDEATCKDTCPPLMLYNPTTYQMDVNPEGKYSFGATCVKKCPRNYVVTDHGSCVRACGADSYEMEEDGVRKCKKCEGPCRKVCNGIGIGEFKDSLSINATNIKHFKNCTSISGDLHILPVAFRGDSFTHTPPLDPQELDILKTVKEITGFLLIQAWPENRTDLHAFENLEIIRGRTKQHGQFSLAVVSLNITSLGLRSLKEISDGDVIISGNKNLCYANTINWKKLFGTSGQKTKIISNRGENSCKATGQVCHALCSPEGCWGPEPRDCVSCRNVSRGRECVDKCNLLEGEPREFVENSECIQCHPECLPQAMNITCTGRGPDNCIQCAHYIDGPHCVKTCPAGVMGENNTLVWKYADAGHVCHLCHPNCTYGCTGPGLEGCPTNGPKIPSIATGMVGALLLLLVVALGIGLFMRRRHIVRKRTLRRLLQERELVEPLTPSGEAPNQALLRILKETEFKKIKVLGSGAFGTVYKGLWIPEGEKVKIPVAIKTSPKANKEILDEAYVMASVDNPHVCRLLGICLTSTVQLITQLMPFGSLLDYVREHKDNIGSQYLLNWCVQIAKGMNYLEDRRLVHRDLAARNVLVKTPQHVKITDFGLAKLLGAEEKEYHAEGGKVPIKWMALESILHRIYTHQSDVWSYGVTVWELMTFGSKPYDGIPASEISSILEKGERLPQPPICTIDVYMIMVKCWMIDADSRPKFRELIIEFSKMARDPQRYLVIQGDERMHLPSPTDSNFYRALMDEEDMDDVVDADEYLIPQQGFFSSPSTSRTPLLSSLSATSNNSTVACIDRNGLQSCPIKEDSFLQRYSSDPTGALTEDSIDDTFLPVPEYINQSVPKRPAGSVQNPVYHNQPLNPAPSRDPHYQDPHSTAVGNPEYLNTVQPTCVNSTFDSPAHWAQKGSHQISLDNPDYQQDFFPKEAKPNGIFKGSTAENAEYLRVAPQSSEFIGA
Sequence of Ba/F3 EGFR L858R/C797S mutants (P00533 whole entry C797S/L858R): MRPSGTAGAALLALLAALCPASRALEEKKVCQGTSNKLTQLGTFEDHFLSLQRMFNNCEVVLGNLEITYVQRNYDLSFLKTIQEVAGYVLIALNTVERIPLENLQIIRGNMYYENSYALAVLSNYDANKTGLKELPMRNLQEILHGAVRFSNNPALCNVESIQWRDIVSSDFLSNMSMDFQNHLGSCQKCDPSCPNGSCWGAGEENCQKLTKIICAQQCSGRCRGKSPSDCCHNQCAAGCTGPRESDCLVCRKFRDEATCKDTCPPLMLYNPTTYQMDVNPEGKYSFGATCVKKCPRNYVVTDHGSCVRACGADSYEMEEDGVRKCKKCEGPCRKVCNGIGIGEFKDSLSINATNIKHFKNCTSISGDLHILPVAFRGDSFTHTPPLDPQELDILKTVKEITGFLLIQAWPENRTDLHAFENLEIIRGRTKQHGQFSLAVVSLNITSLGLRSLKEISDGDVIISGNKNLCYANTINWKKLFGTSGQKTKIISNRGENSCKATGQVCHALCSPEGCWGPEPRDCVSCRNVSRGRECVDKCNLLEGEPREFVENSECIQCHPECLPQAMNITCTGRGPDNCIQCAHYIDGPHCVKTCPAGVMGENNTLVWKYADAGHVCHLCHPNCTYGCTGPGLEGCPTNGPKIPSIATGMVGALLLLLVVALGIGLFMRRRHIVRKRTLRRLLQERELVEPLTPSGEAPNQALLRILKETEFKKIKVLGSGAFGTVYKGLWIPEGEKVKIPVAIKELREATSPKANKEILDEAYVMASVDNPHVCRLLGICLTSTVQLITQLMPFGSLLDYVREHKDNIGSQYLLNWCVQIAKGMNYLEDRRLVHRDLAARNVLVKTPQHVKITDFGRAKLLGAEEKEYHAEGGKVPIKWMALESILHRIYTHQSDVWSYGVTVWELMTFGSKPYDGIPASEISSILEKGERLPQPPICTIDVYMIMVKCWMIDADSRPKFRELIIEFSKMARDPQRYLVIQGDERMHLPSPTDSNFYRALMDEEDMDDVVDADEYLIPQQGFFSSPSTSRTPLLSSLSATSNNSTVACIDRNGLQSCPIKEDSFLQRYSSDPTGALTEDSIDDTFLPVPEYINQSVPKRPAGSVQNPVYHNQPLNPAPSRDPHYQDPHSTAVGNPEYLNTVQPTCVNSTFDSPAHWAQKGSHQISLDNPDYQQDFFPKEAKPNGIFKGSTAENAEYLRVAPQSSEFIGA
Sequence of Ba/F3 EGFR Del19/T790M mutants (P00533 with tags, fused parts or gaps DEL746-750/T790M, form open): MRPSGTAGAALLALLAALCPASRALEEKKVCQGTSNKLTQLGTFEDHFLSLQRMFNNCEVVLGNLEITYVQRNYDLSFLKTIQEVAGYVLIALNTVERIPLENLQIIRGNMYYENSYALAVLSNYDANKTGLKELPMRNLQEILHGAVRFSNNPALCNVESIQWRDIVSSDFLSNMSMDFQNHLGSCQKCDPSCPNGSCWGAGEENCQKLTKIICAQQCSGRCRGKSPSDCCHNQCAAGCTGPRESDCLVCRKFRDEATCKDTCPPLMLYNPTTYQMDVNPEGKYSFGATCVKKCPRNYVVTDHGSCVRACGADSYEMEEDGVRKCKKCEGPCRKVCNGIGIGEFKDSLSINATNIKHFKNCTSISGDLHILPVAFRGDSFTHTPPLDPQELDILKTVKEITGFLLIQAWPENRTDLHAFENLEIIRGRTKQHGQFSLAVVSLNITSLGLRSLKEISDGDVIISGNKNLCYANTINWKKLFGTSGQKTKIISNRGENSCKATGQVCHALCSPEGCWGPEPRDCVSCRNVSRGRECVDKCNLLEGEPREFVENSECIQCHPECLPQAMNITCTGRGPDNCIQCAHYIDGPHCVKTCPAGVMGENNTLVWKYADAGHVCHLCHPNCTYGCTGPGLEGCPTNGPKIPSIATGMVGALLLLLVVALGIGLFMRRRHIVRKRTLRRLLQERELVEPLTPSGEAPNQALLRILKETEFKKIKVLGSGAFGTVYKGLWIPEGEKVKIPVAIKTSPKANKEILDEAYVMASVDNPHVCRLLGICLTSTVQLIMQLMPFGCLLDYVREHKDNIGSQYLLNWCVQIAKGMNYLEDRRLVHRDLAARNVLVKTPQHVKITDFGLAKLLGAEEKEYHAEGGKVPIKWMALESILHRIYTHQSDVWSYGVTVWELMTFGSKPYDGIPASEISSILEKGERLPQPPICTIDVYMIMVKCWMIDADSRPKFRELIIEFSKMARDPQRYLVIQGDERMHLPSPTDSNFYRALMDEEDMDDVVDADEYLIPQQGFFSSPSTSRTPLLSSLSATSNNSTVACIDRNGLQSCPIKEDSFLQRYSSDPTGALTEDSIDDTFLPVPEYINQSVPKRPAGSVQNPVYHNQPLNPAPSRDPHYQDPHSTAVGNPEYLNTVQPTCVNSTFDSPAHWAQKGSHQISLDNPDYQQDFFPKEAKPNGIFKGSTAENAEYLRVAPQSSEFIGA
Sequence of Ba/F3 EGFR L858R/T790M/C797S mutants (P00533 whole entry T790M/C797S/L858R): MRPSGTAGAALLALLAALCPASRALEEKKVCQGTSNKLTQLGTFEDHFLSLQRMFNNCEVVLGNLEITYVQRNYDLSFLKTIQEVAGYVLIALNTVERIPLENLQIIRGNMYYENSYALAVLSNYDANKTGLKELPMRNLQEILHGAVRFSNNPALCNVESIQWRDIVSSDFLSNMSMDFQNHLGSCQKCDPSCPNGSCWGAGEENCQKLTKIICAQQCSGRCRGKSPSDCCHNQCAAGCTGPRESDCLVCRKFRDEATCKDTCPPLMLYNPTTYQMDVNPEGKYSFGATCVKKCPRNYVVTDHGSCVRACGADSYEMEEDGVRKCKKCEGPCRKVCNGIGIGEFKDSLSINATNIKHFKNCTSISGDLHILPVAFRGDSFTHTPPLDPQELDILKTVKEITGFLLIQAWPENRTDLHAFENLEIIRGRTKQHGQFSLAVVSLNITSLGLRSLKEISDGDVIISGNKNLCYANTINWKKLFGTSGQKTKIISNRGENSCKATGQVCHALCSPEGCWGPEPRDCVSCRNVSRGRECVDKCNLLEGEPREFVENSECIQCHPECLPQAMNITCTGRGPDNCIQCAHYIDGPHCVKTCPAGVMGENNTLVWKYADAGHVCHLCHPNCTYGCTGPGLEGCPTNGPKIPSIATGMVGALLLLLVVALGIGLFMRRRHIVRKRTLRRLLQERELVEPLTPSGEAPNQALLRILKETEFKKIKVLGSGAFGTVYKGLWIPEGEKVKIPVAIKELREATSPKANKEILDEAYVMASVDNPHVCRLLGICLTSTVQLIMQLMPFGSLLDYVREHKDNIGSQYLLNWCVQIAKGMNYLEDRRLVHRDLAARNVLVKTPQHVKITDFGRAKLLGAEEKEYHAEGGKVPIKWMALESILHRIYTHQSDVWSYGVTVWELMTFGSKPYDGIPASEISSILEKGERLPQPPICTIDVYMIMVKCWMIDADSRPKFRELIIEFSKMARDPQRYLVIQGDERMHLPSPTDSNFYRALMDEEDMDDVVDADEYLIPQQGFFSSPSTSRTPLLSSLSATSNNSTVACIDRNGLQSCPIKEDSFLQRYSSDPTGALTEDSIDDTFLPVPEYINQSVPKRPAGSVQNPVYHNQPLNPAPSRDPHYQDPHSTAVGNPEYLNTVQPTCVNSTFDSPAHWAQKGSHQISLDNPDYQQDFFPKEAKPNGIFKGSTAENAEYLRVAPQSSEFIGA

For `COc1cc(N2CCC(N(C)C)CC2)c(C)cc1Nc1ncc(Br)c(Nc2cccc(OC)c2NS(C)(=O)=O)n1` [Example C3, N-(2-((5-bromo-2-((4-(4-(dimethylamino)piperidin-1-yl)-2-methoxy-5-methylphenyl)amino)pyrimidin-4-yl)amino)-6-methoxyphenyl)methanesulfonamide], the GI50 in assay [1] was 113 nM; in assay [2], 92 nM; in assay [3], 60 nM; in assay [4] it was 23 nM; at Ba/F3 EGFR Wild-type, 288 nM; in assay [5], 17 nM.
As to `CCCc1cc(Nc2ncc(Cl)c(Nc3ccc4c(c3NS(C)(=O)=O)OCCO4)n2)c(OC)cc1N1CCC(N(C)C)CC1` [Example C13, N-(6-((5-chloro-2-((4-(4-(dimethylamino)piperidin-1-yl)-2-methoxy-5-propylphenyl)amino)pyrimidin-4-yl)amino)-2,3-dihydrobenzo[b][1,4]dioxin-5-yl)methanesulfonamide], the GI50 in assay [1] stood at 61 nM; in assay [2], 27 nM; in assay [3], 23 nM; in assay [4] it was 52 nM; on Ba/F3 EGFR Wild-type, 769 nM; in assay [5], 20 nM.
With `COc1cc(C2CCNCC2)c(F)cc1Nc1ncc(Cl)c(Nc2ccc3nccnc3c2NS(C)(=O)=O)n1` [Example B21, N-(6-((5-chloro-2-((5-fluoro-2-methoxy-4-(piperidin-4-yl)phenyl)amino)pyrimidin-4-yl)amino)quinoxalin-5-yl)methanesulfonamide], the GI50 in assay [1] is 500 nM; in assay [2], 448 nM; in assay [3] it was 342 nM; in assay [4], 693 nM; on Ba/F3 EGFR Wild-type, 1730 nM; in assay [5], 469 nM.
For the compound `CCc1cc(Nc2ncc(Br)c(Nc3ccc4nccnc4c3N(C)S(C)(=O)=O)n2)c(OC)cc1N1CCC(N(C)C)CC1` [Example B14, N-(6-((5-bromo-2-((4-(4-(dimethylamino)piperidin-1-yl)-5-ethyl-2-methoxyphenyl)amino)pyrimidin-4-yl)amino)quinoxalin-5-yl)-N-methylmethanesulfonamide], the GI50 was 41 nM in assay [1]; 8 nM in assay [2]; 6 nM in assay [3]; 23 nM in assay [4]; 427 nM at Ba/F3 EGFR Wild-type; 3 nM in assay [5].
For the compound `CCc1cc(Nc2ncc(Br)c(Nc3ccc4nccnc4c3N(C)S(C)(=O)=O)n2)c(OC)cc1N1CC2CCC1CN2C(C)C` (stereo not drawn) [Example B30, N-(6-((5-bromo-2-((5-ethyl-4-(5-isopropyl-2,5-diazabicyclo[2.2.2]octan-2-yl)-2-methoxyphenyl)amino)pyrimidin-4-yl)amino)quinoxalin-5-yl)-N-methylmethanesulfonamide], the GI50 in assay [1] turned out to be 23 nM; in assay [2] it was 2 nM; in assay [3], 11 nM; in assay [4] it was 71 nM; at Ba/F3 EGFR Wild-type, 233 nM; in assay [5], 7 nM.
Regarding `CCCc1cc(Nc2ncc(Cl)c(Nc3ccc(OC)cc3NS(C)(=O)=O)n2)c(OC)cc1N1CCC(N(C)C)CC1` [Example C12, N-(2-((5-chloro-2-((4-(4-(dimethylamino)piperidin-1-yl)-2-methoxy-5-propylphenyl)amino)pyrimidin-4-yl)amino)-5-methoxyphenyl)methanesulfonamide], the GI50 in assay [1] was determined as 28 nM; in assay [2], 9 nM; in assay [3] it was 6 nM; in assay [4], 29 nM; on Ba/F3 EGFR Wild-type, 731 nM; in assay [5], 8 nM.
As to `COc1cc(C2CCNCC2)ccc1Nc1ncc(C2CC2)c(Nc2ccc3nccnc3c2NS(C)(=O)=O)n1` [Example B20, N-(6-((5-cyclopropyl-2-((2-methoxy-4-(piperidin-4-yl)phenyl)amino)pyrimidin-4-yl)amino)quinoxalin-5-yl)methanesulfonamide], the GI50 in assay [1] is 1140 nM; in assay [2] it was 758 nM; in assay [3], 697 nM; in assay [4], 1850 nM; at Ba/F3 EGFR Wild-type, more than 2000 nM; in assay [5], 1810 nM.
Turning to `COc1cc(N2CC[C@H](N3CCN(C)CC3)[C@H](F)C2)ccc1Nc1ncc(Cl)c(Nc2ccc3nccnc3c2NS(C)(=O)=O)n1` [Example A35, N-(6-((5-chloro-2-((4-((3R,4S)-3-fluoro-4-(4-methylpiperazin-1-yl)piperidin-1-yl)-2-methoxyphenyl)amino)pyrimidin-4-yl)amino)quinoxalin-5-yl)methane sulfonamide], the GI50 came to 335 nM in assay [1]; 272 nM in assay [2]; 145 nM in assay [3]; 659 nM in assay [4]; 576 nM on Ba/F3 EGFR Wild-type; 219 nM in assay [5].
For `CCc1cc(Nc2ncc(Cl)c(Nc3ccc4nccnc4c3NS(C)(=O)=O)n2)c(OC)cc1N1CCC(N2CC3CCC2CN3C)CC1` (stereo not drawn) [Example A45, N-(6-((5-chloro-2-((5-ethyl-2-methoxy-4-(4-(5-methyl-2,5-diazabicyclo[2.2.2]octan-2-yl)piperidin-1-yl)phenyl)amino)pyrimidin-4-yl)amino)quinoxalin-5-yl)methanesulfonamide], the GI50 in assay [1] was 103 nM; in assay [2], 7 nM; in assay [3], 10 nM; in assay [4] it was 71 nM; at Ba/F3 EGFR Wild-type it was 734 nM; in assay [5], 9 nM.
For `CCc1cc(Nc2ncc(Cl)c(Nc3ccc4nccnc4c3N(C)S(C)(=O)=O)n2)c(OC)cc1N1CCC(N2CCOCC2)CC1` [Example A40, N-(6-((5-chloro-2-((5-ethyl-2-methoxy-4-(4-morpholinopiperidin-1-yl)phenyl)amino)pyrimidin-4-yl)amino)quinoxalin-5-yl)-N-methylmethanesulfonamide], the GI50 in assay [1] was 50 nM; in assay [2], 12 nM; in assay [3] it was 10 nM; in assay [4], 94 nM; at Ba/F3 EGFR Wild-type, 845 nM; in assay [5], 10 nM.
Consider `CCc1cc(Nc2ncc(Br)c(Nc3ccc4nccnc4c3N(C)S(C)(=O)=O)n2)c(OC)cc1N1CCC(N2CCOCC2)CC1` [Example A39, N-(6-((5-bromo-2-((5-ethyl-2-methoxy-4-(4-morpholinopiperidin-1-yl)phenyl)amino)pyrimidin-4-yl)amino)quinoxalin-5-yl)-N-methylmethanesulfonamide], for which the GI50 came to 61 nM in assay [1]; 8 nM in assay [2]; 8 nM in assay [3]; 35 nM in assay [4]; 779 nM at Ba/F3 EGFR Wild-type; 4 nM in assay [5].
With `CCc1cc(Nc2ncc(Cl)c(Nc3ccc4nccnc4c3N(C)S(C)(=O)=O)n2)c(OC)cc1N1CCC(N2CCCC2)CC1` [Example A43, N-(6-((5-chloro-2-((5-ethyl-2-methoxy-4-(4-(pyrrolidin-1-yl)piperidin-1-yl)phenyl)amino)pyrimidin-4-yl)amino)quinoxalin-5-yl)-N-methylmethanesulfonamide], the GI50 was 28 nM in assay [1]; 5 nM in assay [2]; 6 nM in assay [3]; 35 nM in assay [4]; 507 nM on Ba/F3 EGFR Wild-type; 8 nM in assay [5].
